Reference: patent publication US12637424B2, “Pharmaceutical salt of an arylpyrrole derivative” (SENTINEL ONCOLOGY LIMITED, priority 2020, dated 2026)

Key:
Experiment in all cases: DiscoverX KinomeScreen competition binding assay (kinase selectivity panel)
[1] = molecular target: T1, panel of ninety-seven kinases (Homo sapiens, UniProt O75116); settings: ROCK2; screened at 3000 nM
T1 construct: purchased DiscoverX; host or cells: E. coli (BL21-derived, T7 phage display) or HEK-293
Description: (§1) This has been investigated by testing atropisomer A-2 for off-target activity against a panel of ninety-seven kinases distributed across the kinome at a concentration of 3 μM using the DiscoverX KinomeScreen assay. The DiscoverX KinomeScreen assay is a site-directed competition binding assay which measures the binding affinity of a compound to a kinase, by use of a solid supported control compound which can bind or capture the kinases in solution. In the absence of a kinase-inhibitor test compound, all of the kinase will bind to the solid support. If a kinase-inhibitor test compound is added to the assay mix, the amount of kinase binding to the solid support will be reduced, the extent of reduction being dependent on the potency of the test compound as a kinase inhibitor. […] For most assays, kinase-tagged T7 phage strains were grown in parallel in 24-well blocks in an E. coli host derived from the BL21 strain. E. coli were grown to log-phase and infected with T7 phage from a frozen stock (multiplicity of infection=0.4) and incubated with shaking at 32° C. until lysis (90-150 minutes). The lysates were centrifuged (6,000×g) and filtered (0.2 μm) to remove cell debris. The remaining kinases were produced in HEK-293 cells and subsequently tagged with DNA for qPCR detection. Streptavidin-coated magnetic beads were treated with biotinylated small molecule ligands for 30 minutes at room temperature to generate affinity resins for kinase assays. The liganded beads were blocked with excess biotin and washed with blocking buffer (SeaBlock (Pierce), 1% BSA, 0.05% Tween 20, 1 mM DTT) to remove unbound ligand and to reduce non-specific phage binding. […] Test compounds were prepared as 40× stocks in 100% DMSO and directly diluted into the assay. All reactions were performed in polypropylene 384-well plates in a final volume of 0.02 ml. […] The beads were then re-suspended in elution buffer (1×PBS, 0.05% Tween 20, 0.5 μM non-biotinylated affinity ligand) and incubated at room temperature with shaking for 30 minutes. The kinase concentration in the eluates was measured by qPCR. Compounds that bind the kinase active site and directly (sterically) or indirectly (allosterically) prevent kinase binding to the immobilized ligand, will reduce the amount of kinase captured on the solid support. […] The strength of binding of the test molecule to the kinase can be expressed as the percent control (% Ctrl) The compound(s) were screened at 3000 nM concentration, and results for primary screen binding interactions are reported as ‘% Ctrl’, where lower numbers indicate stronger hits in the matrix on the following page(s). [formula] • negative control=DMSO (100% Ctrl) • positive control=control compound (0% Ctrl)

[2] = molecular target: T2, panel of ninety-seven kinases (Homo sapiens, UniProt P04049); settings: RAF1; screened at 3000 nM
T2 construct: purchased DiscoverX; host or cells: E. coli (BL21-derived, T7 phage display) or HEK-293
T2 sequence (P04049 whole entry): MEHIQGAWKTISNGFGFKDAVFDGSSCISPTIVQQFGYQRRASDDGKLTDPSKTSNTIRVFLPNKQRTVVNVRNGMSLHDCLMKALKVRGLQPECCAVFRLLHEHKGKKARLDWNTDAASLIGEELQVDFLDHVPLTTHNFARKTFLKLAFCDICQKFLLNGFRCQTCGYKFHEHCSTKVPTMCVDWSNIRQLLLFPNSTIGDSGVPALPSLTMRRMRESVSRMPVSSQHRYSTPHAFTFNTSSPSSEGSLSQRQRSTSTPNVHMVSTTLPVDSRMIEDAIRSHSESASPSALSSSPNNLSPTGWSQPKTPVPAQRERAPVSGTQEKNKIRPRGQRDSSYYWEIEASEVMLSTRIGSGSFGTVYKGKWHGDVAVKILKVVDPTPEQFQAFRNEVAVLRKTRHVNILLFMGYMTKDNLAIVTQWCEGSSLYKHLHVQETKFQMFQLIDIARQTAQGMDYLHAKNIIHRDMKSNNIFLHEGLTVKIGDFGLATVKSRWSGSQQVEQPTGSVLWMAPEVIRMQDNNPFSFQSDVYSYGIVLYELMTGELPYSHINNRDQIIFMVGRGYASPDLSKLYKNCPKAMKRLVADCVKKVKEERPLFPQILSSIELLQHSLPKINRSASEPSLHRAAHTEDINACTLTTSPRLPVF
Description: as §1

[3] = molecular target: T3, panel of ninety-seven kinases (Homo sapiens, UniProt P08069); settings: IGF1R; screened at 3000 nM
T3 construct: purchased DiscoverX; host or cells: E. coli (BL21-derived, T7 phage display) or HEK-293
Description: as §1

[4] = molecular target: T4, panel of ninety-seven kinases (Homo sapiens, UniProt P17612); settings: PRKACA; screened at 3000 nM
T4 construct: purchased DiscoverX; host or cells: E. coli (BL21-derived, T7 phage display) or HEK-293
Description: as §1

[5] = molecular target: T5, panel of ninety-seven kinases (Homo sapiens, UniProt P22607); settings: FGFR3; screened at 3000 nM
T5 construct: purchased DiscoverX; host or cells: E. coli (BL21-derived, T7 phage display) or HEK-293
Description: as §1

[6] = molecular target: T6, panel of ninety-seven kinases (Homo sapiens, UniProt P27361); settings: MAPK3; screened at 3000 nM
T6 construct: purchased DiscoverX; host or cells: E. coli (BL21-derived, T7 phage display) or HEK-293
T6 sequence (P27361 whole entry): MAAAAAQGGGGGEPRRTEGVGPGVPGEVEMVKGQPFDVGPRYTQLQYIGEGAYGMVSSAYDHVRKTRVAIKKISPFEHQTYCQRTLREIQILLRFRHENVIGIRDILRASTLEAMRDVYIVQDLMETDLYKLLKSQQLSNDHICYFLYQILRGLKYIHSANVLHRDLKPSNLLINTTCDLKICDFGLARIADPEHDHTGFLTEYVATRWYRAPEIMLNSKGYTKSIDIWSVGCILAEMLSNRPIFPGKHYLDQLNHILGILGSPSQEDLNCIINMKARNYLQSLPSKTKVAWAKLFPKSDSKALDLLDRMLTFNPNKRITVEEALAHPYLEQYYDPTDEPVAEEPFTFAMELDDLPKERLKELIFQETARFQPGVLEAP
Description: as §1

[7] = molecular target: T7, panel of ninety-seven kinases (Homo sapiens, UniProt P29597); settings: TYK2; screened at 3000 nM
T7 construct: purchased DiscoverX; host or cells: E. coli (BL21-derived, T7 phage display) or HEK-293
Description: as §1

[8] = molecular target: T8, panel of ninety-seven kinases (Homo sapiens, UniProt P36888); settings: FLT3; screened at 3000 nM
T8 construct: purchased DiscoverX; host or cells: E. coli (BL21-derived, T7 phage display) or HEK-293
Description: as §1

[9] = molecular target: T9, panel of ninety-seven kinases (Homo sapiens, UniProt P45983); settings: MAPK8; screened at 3000 nM
T9 construct: purchased DiscoverX; host or cells: E. coli (BL21-derived, T7 phage display) or HEK-293
T9 sequence (P45983 whole entry): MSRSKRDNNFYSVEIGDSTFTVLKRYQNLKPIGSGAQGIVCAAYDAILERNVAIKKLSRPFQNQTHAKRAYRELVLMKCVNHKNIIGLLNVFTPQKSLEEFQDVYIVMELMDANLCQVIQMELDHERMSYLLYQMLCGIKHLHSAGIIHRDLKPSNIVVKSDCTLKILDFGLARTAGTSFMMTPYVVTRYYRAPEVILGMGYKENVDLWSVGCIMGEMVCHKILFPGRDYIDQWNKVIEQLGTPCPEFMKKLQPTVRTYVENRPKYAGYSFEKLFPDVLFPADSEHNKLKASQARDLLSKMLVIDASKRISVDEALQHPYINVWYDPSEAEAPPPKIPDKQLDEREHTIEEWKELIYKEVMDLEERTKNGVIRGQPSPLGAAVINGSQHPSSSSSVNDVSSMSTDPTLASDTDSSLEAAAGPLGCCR
Description: as §1

[10] = molecular target: T10, panel of ninety-seven kinases (Homo sapiens, UniProt P45984); settings: MAPK9; screened at 3000 nM
T10 construct: purchased DiscoverX; host or cells: E. coli (BL21-derived, T7 phage display) or HEK-293
Description: as §1

[11] = molecular target: T11, panel of ninety-seven kinases (Homo sapiens, UniProt P48736); settings: PIK3CG; screened at 3000 nM
T11 construct: purchased DiscoverX; host or cells: E. coli (BL21-derived, T7 phage display) or HEK-293
Description: as §1

[12] = molecular target: T12, panel of ninety-seven kinases (Homo sapiens, UniProt P49137); settings: MAPKAPK2; screened at 3000 nM
T12 construct: purchased DiscoverX; host or cells: E. coli (BL21-derived, T7 phage display) or HEK-293
T12 sequence (P49137 whole entry): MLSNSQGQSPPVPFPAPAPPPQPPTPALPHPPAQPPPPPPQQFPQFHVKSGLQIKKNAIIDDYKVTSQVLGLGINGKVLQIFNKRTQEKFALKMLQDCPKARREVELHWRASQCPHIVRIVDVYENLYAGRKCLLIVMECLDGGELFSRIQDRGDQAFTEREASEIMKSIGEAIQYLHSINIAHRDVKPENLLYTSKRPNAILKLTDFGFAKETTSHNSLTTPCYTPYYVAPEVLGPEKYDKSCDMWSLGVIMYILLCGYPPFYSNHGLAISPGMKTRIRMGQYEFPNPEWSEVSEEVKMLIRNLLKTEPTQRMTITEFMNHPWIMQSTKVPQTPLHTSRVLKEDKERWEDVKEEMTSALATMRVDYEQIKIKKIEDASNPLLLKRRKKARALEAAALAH
Description: as §1

[13] = molecular target: T13, panel of ninety-seven kinases (Homo sapiens, UniProt P49841); settings: GSK3B; screened at 3000 nM
T13 construct: purchased DiscoverX; host or cells: E. coli (BL21-derived, T7 phage display) or HEK-293
Description: as §1

[14] = molecular target: T14, panel of ninety-seven kinases (Homo sapiens, UniProt P50750); settings: CDK9; screened at 3000 nM
T14 construct: purchased DiscoverX; host or cells: E. coli (BL21-derived, T7 phage display) or HEK-293
T14 sequence (P50750 whole entry): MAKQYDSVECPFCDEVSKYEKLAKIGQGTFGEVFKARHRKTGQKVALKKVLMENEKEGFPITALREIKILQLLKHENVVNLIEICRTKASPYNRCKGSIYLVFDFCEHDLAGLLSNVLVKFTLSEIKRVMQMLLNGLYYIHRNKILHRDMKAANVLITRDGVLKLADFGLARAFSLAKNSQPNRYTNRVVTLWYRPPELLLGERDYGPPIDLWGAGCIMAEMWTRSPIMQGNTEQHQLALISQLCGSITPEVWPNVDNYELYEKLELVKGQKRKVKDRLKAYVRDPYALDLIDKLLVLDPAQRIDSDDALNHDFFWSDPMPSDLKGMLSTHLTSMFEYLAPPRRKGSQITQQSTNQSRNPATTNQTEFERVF
Description: as §1

[15] = molecular target: T15, panel of ninety-seven kinases (Homo sapiens, UniProt P51812); settings: RPS6KA3; screened at 3000 nM
T15 construct: purchased DiscoverX; host or cells: E. coli (BL21-derived, T7 phage display) or HEK-293
Description: as §1

[16] = molecular target: T16, panel of ninety-seven kinases (Homo sapiens, UniProt P52333); settings: JAK3; screened at 3000 nM
T16 construct: purchased DiscoverX; host or cells: E. coli (BL21-derived, T7 phage display) or HEK-293
Description: as §1

[17] = molecular target: T17, panel of ninety-seven kinases (Homo sapiens, UniProt P78368); settings: CSNK1G2; screened at 3000 nM
T17 construct: purchased DiscoverX; host or cells: E. coli (BL21-derived, T7 phage display) or HEK-293
Description: as §1

[18] = molecular target: T18, panel of ninety-seven kinases (Homo sapiens, UniProt Q00536); settings: CDK16; screened at 3000 nM
T18 construct: purchased DiscoverX; host or cells: E. coli (BL21-derived, T7 phage display) or HEK-293
T18 sequence (Q00536 whole entry): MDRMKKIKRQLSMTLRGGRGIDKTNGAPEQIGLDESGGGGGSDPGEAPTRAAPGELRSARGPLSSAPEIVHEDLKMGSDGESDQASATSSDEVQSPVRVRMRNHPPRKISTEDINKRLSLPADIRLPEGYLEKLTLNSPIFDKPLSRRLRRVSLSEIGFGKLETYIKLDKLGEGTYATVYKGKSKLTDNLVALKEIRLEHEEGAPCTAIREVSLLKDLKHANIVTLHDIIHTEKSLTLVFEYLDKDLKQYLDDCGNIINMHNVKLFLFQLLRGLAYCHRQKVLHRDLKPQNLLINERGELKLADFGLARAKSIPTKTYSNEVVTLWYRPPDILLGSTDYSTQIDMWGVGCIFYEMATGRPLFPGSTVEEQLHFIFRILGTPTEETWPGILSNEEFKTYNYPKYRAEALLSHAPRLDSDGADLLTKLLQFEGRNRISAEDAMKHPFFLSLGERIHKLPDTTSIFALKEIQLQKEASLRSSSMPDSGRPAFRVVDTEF
Description: as §1

[19] = molecular target: T19, panel of ninety-seven kinases (Homo sapiens, UniProt Q05397); settings: PTK2; screened at 3000 nM
T19 construct: purchased DiscoverX; host or cells: E. coli (BL21-derived, T7 phage display) or HEK-293
Description: as §1

[20] = molecular target: T20, panel of ninety-seven kinases (Homo sapiens, UniProt Q86V86); settings: PIM3; screened at 3000 nM
T20 construct: purchased DiscoverX; host or cells: E. coli (BL21-derived, T7 phage display) or HEK-293
Description: as §1

[21] = molecular target: T21, panel of ninety-seven kinases (Homo sapiens, UniProt Q9BVS4); settings: RIOK2; screened at 3000 nM
T21 construct: purchased DiscoverX; host or cells: E. coli (BL21-derived, T7 phage display) or HEK-293
T21 sequence (Q9BVS4 whole entry): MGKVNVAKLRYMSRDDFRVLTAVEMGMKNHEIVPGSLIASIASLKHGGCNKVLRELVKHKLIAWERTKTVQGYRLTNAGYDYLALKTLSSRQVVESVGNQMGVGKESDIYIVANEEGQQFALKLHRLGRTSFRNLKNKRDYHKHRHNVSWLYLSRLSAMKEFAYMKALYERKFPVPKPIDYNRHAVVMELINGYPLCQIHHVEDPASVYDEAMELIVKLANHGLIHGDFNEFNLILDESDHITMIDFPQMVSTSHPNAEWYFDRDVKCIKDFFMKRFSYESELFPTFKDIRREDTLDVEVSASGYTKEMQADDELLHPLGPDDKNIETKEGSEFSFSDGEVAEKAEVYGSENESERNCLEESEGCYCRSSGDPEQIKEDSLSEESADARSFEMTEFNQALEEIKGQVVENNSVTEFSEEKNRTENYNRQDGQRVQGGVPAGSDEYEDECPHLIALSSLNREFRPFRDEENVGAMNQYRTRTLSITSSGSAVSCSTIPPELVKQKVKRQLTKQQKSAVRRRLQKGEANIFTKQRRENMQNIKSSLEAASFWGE
Description: as §1

[22] = molecular target: T22, panel of ninety-seven kinases (Homo sapiens, UniProt Q9H093); settings: NUAK2; screened at 3000 nM
T22 construct: purchased DiscoverX; host or cells: E. coli (BL21-derived, T7 phage display) or HEK-293
Description: as §1

T1 sequence (O75116 whole entry): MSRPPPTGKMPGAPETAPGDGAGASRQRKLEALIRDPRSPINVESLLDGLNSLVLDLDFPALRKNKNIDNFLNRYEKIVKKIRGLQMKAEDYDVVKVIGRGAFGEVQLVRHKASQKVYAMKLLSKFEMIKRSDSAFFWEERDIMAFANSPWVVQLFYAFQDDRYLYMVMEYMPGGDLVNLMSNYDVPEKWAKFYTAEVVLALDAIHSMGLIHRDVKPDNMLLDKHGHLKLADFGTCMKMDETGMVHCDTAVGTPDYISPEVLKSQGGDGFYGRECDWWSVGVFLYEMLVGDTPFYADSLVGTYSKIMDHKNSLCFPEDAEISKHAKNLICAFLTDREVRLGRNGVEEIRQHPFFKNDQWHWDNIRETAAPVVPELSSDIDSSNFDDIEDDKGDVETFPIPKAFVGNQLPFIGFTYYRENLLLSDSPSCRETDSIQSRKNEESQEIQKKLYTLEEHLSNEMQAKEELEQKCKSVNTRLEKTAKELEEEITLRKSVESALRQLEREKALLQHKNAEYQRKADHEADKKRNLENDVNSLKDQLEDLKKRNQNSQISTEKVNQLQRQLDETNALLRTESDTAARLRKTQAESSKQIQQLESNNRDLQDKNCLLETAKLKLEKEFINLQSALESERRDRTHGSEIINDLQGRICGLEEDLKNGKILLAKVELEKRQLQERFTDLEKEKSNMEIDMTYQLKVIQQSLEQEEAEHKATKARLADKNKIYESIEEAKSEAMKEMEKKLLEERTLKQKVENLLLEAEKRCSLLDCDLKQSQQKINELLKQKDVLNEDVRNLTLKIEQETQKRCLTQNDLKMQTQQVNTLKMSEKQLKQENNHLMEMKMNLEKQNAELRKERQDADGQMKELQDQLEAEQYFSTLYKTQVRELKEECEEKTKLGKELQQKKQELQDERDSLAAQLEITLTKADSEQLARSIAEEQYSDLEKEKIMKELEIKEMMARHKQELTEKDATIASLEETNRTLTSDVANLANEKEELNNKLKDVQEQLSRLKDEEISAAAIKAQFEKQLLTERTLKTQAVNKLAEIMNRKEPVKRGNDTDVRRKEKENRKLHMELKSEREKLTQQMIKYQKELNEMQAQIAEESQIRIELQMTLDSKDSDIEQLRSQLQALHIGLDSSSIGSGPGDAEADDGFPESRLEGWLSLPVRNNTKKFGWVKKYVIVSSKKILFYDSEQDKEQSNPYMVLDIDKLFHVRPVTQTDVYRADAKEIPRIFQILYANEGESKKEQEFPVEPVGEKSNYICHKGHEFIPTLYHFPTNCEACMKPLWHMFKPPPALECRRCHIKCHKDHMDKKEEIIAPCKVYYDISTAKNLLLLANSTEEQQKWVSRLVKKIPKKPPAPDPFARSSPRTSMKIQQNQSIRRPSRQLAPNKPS

SMILES: CN(C)CCNC(=O)c1ccc(-c2ccc(-c3ccc(Cl)cc3)n2-c2ccccc2C(F)(F)F)cc1 (single isomer, unassigned) [Atropisomer A-2]
- % Ctrl @ 3 μM [1]: 88 % Ctrl
- % Ctrl @ 3 μM [2]: 92 % Ctrl
- % Ctrl @ 3 μM [3]: 100 % Ctrl
- % Ctrl @ 3 μM [4]: 100 % Ctrl
- % Ctrl @ 3 μM [5]: 92 % Ctrl
- % Ctrl @ 3 μM [6]: 99 % Ctrl
- % Ctrl @ 3 μM [7]: 100 % Ctrl
- % Ctrl @ 3 μM [8]: 100 % Ctrl
- % Ctrl @ 3 μM [9]: 77 % Ctrl
- % Ctrl @ 3 μM [10]: 80 % Ctrl
- % Ctrl @ 3 μM [11]: 100 % Ctrl
- % Ctrl @ 3 μM [12]: 75 % Ctrl
- % Ctrl @ 3 μM [13]: 88 % Ctrl
- % Ctrl @ 3 μM [14]: 97 % Ctrl
- % Ctrl @ 3 μM [15]: 100 % Ctrl
- % Ctrl @ 3 μM [16]: 100 % Ctrl
- % Ctrl @ 3 μM [17]: 100 % Ctrl
- % Ctrl @ 3 μM [18]: 100 % Ctrl
- % Ctrl @ 3 μM [19]: 98 % Ctrl
- % Ctrl @ 3 μM [20]: 98 % Ctrl
- % Ctrl @ 3 μM [21]: 100 % Ctrl
- % Ctrl @ 3 μM [22]: 99 % Ctrl
